Results from patent EP2197879B1, “C7-SUBSTITUTED CAMPTOTHECIN ANALOGS” (priority 2007, dated 2009).
Read-outs that look alike come from different tables or passages of the source.

How the values were obtained:
[1] = test system: advanced gastrointestinal cancer; conditions: cited from earlier work
[2] = cited from earlier work; for No. of Patients With Cystitis / No. of Patients With Diarrhea: 5-day Course; for Number of Patients with Cystitis / Number of Patients with Diarrhea: Single-Dose Method
[3] = cited from earlier work
[4] = test system: advanced malignant melanoma; conditions: 90-360 mg/m^2 repeated every 2 weeks; fifteen patients; cited from earlier work
[5] = closed E-ring lactone form; drug dissolving in 1 mL of water; cited from earlier work
[6] = clinical studies in Japan alone; cited from earlier work
angiogenesis = conditions: dose levels of 210 mg/kg; cited from earlier work
[7] = test system: panel of over 20 human cancer cell lines; assay: In vitro antitumor potency on a panel of human cancer cell lines; conditions: compared with Topotecan or SN-38
[8] = cited from earlier work; remark: listed apart in the source
[9] = 5-Day Course (27 Patients Total), 4 wks
[10] = 5-Day Course (27 Patients Total), 8 wks
[11] = 5-Day Course (27 Patients Total), 12 wks
[12] = Single-Dose Method (34 Patients Total), 3 wks
[13] = Single-Dose Method (34 Patients Total), 6 wks
[14] = Single-Dose Method (34 Patients Total), 9 wks
[15] = Single-Dose Method (34 Patients Total), 12 wks

CC[C@@]1(O)C(=O)OCc2c1cc1n(c2=O)Cc2cc3ccccc3nc2-1 [CPT sodium]
Objective Results: Improved [1, 9]: 1
Objective Results: Stable [1, 9]: 12
Objective Results: Worse [1, 9]: 14
Objective Results: Stable [1, 10]: 7
Objective Results: Worse [1, 10]: 20
Objective Results: Stable [1, 11]: 6
Objective Results: Worse [1, 11]: 21
Objective Results: Improved [1, 12]: 4
Objective Results: Stable [1, 12]: 17
Objective Results: Worse [1, 12]: 13
Objective Results: Improved [1, 13]: 2
Objective Results: Stable [1, 13]: 11
Objective Results: Worse [1, 13]: 21
Objective Results: Improved [1, 14]: 2
Objective Results: Stable [1, 14]: 8
Objective Results: Worse [1, 14]: 24
Objective Results: Stable [1, 15]: 6
Objective Results: Worse [1, 15]: 28
patients with partial objective improvement ([1]; after 2 months (8 or 9 weeks), of 61 patients): two
patients with improvement ([1]; at 3 months, of 61 patients): none
patients who showed a 25%-50% response ([1]; at 3 wks, only): *A total of 3 patients showed a 25%-50% response at 3 wks, only.
Cystitis ([2]; 5-Day Course): 48 (P<0.05) % of 27 Patients
No. of Patients With Cystitis ([2]; 11 mg/m^2 X 5): 1
No. of Patients With Cystitis ([2]; 15 mg/m^2 X 5): 4
No. of Patients With Diarrhea ([2]; 15 mg/m^2 X 5): 1
No. of Patients With Cystitis ([2]; 17 mg/m^2 X 5): 2
No. of Patients With Diarrhea ([2]; 17 mg/m^2 X 5): 4
No. of Patients With Cystitis ([2]; 20 mg/m^2 X 5): 6
No. of Patients With Diarrhea ([2]; 20 mg/m^2 X 5): 4
No. of Patients With Diarrhea ([2]; 22 mg/m^2 X 5): 1
Cystitis ([2]; Single Dose): 24 % of 34 Patients
Number of Patients with Cystitis ([2]; 100 mg/m^2): 2
Number of Patients with Cystitis ([2]; 110 mg/m^2): 1
Number of Patients with Diarrhea ([2]; 110 mg/m^2): 1
Number of Patients with Cystitis ([2]; 120 mg/m^2): 2
Number of Patients with Diarrhea ([2]; 120 mg/m^2): 4
Number of Patients with Cystitis ([2]; 180 mg/m^2): 3
Number of Patients with Diarrhea ([2]; 180 mg/m^2): 2
patients with dose limiting bladder toxicity ([3]; doses of 20 to 30 mg/m^2): three
additional patients with bladder toxicity ([3]; doses of 30 and 44 mg/m^2): two
clinical benefit ([3]; eight patients with measurable disease, 5-day courses): No clinical benefit
patients with a 50% or greater decrease in tumor diameter [4]: None
patients with less pronounced transient tumor regression [4]: three
patients with myelosuppression [4]: 11

CC[C@@]1(O)C(=O)OCc2c1cc1n(c2=O)Cc2cc3ccccc3nc2-1 [CPT, (S)-4-Ethyl-4-hydroxy-1 H-pyrano[3',4':6,7]indolizino[1,2-b]quinoline-3,14(4H,12H)-dione]
solubility in water [5]: approximately 0.1 µg
Percent of Free Camptothecin Analogs in Human Plasma (human plasma proteins; 100 nM Compound Concentrations, 48 hours or longer at room temperature): 0%

CCc1c2c(nc3ccc(OC(=O)N4CCC(N5CCCCC5)CC4)cc13)-c1cc3c(c(=O)n1C2)COC(=O)[C@]3(O)CC [CPT-11, 7-ethyl-10-[4-(1-piperidino)-1-piperidino] carbonyloxy camptothecin]
patient deaths directly attributable to drug toxicity [6]: approximately 100
neovascularization (angiogenesis): significant reduction of neovascularization

CC[C@@]1(O)C(=O)OCc2c1cc1n(c2=O)Cc2c-1nc1ccccc1c2CC[Si](C)(C)C [Karenitecin, (4S)-4-ethyl-4-hydroxy-11-[2-(trimethylsilyl)ethyl]-1H-pyrano[3':4':6,7]indolizino[1,2-b]quinoline-3,14(4H,12H)-dione]
antitumor potency [7]: significantly more potent
Percent of Free Camptothecin Analogs in Human Plasma (human plasma proteins): 1.2%
protein-bound (human plasma proteins): 98-99%

CC[C@@](O)(C(=O)O)c1cc2n(c(=O)c1CO)Cc1cc3ccccc3nc1-2 [carboxylate form of CPT]
anti-tumor potency relative to the original, non-hydrolyzed lactone form ([8]; carboxylate form from sodium hydroxide formulation): approximately one-tenth or less
anti-tumor activity reduced ([8]; carboxylate form versus lactone): at least 10 fold
